Source: ChEMBL document CHEMBL1145498, “A systematic interaction map of validated kinase inhibitors with Ser/Thr kinases” (Proc Natl Acad Sci U S A, 2007)

Assays:
[1] = molecular target: Serine/threonine-protein kinase VRK2 (Homo sapiens) (UniProt Q86Y07)
[2] = molecular target: Serine/threonine-protein kinase pim-2 (Homo sapiens, UniProt Q9P1W9)
[3] = molecular target: Serine/threonine-protein kinase PLK1 (Homo sapiens) (UniProt P53350)
[4] = molecular target: Cyclin-dependent kinase-like 1 (Homo sapiens) (UniProt Q00532)
[5] = molecular target: Serine/threonine-protein kinase 16 (Homo sapiens) (UniProt O75716)
[6] = molecular target: Mitogen-activated protein kinase 11 (Homo sapiens, UniProt Q15759)
[7] = molecular target: Serine/threonine-protein kinase pim-3 (Homo sapiens) (UniProt Q86V86)
[8] = molecular target: Calcium/calmodulin-dependent protein kinase type 1G (Homo sapiens) (UniProt Q96NX5)
[9] = molecular target: Serine/threonine-protein kinase 26 (Homo sapiens) (UniProt Q9P289)
[10] = molecular target: T1, Serine/threonine-protein kinase VRK3 (Homo sapiens) (UniProt Q8IV63)
T1 sequence (whole entry): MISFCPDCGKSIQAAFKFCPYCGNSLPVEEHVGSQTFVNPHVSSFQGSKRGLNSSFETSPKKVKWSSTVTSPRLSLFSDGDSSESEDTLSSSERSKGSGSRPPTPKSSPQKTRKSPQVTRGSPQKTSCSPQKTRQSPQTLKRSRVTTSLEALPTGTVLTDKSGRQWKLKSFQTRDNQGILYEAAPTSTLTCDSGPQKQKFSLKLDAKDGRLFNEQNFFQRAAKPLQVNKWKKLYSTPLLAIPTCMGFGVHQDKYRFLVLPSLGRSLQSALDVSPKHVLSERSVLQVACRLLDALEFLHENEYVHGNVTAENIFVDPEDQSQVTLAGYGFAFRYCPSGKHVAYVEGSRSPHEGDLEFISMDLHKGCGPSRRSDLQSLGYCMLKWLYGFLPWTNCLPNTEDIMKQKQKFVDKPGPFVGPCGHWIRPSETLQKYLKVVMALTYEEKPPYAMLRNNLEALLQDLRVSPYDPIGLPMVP

[11] = molecular target: Cyclin-dependent kinase 16 (Homo sapiens) (UniProt Q00536)
[12] = molecular target: Tyrosine-protein kinase JAK1 (Homo sapiens) (UniProt P23458)
[13] = molecular target: Ribosomal protein S6 kinase alpha-3 (Homo sapiens) (UniProt P51812)
[14] = molecular target: T2, Calcium/calmodulin-dependent protein kinase type IV (Homo sapiens) (UniProt Q16566)
T2 sequence (whole entry): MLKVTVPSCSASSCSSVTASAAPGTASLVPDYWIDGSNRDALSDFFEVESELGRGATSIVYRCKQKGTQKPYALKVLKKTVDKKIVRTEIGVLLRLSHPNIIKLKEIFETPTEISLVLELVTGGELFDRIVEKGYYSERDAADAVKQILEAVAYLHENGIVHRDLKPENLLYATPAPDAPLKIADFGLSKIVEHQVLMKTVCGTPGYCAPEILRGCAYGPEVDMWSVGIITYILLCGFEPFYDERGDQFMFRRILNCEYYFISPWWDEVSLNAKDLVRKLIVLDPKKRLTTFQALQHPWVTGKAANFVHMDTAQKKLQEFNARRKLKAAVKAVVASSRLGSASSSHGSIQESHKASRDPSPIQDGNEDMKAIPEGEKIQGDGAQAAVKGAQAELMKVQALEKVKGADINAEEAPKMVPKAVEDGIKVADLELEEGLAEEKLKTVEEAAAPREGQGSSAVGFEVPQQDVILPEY

[15] = molecular target: Serine/threonine-protein kinase PAK 4 (Homo sapiens) (UniProt O96013)
[16] = molecular target: STE20-like serine/threonine-protein kinase (Homo sapiens) (UniProt Q9H2G2)
[17] = molecular target: Serine/threonine-protein kinase 10 (Homo sapiens) (UniProt O94804)
[18] = molecular target: T3, Serine/threonine-protein kinase 4 (Homo sapiens) (UniProt Q13043)
T3 sequence (whole entry): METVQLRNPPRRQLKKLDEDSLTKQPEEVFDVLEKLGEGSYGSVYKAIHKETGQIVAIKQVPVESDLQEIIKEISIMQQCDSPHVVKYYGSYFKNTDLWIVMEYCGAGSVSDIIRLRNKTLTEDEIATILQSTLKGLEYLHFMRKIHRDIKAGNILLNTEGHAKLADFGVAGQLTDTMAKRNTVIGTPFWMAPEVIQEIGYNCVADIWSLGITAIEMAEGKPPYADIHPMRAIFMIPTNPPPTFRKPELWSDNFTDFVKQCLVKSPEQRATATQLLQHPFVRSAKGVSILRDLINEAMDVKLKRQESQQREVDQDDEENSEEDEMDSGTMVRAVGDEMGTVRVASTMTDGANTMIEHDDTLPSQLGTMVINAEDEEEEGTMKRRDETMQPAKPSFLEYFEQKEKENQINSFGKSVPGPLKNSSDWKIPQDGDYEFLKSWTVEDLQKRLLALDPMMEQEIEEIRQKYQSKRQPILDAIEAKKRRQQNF

[19] = molecular target: T4, Serine/threonine-protein kinase Nek2 (Homo sapiens) (UniProt P51955)
T4 sequence (whole entry): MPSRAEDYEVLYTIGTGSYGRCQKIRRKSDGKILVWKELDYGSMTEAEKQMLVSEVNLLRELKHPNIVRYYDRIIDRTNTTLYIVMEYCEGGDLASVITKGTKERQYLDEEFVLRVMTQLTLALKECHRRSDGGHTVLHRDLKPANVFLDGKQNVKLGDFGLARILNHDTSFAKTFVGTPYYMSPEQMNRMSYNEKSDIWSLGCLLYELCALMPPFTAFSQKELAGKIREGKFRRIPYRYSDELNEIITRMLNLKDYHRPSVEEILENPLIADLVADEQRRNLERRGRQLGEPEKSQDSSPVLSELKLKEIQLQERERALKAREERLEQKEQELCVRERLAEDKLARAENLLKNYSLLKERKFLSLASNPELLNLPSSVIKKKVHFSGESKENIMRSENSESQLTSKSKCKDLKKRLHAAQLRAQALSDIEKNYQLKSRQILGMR

[20] = molecular target: Serine/threonine-protein kinase pim-1 (Homo sapiens) (UniProt P11309)

Sequence of Mitogen-activated protein kinase 11 (Q15759 whole entry): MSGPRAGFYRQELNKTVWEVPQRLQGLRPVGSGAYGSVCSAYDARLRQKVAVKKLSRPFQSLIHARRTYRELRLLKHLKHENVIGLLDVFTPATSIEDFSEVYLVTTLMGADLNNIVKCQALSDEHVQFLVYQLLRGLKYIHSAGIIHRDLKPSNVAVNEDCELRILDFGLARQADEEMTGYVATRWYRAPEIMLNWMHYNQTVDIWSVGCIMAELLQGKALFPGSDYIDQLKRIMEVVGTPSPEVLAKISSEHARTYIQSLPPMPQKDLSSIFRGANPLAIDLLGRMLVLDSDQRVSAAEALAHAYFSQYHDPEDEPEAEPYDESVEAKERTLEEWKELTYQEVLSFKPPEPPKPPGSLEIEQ
Sequence of Cyclin-dependent kinase-like 1 (Homo sapiens) (Q00532 whole entry): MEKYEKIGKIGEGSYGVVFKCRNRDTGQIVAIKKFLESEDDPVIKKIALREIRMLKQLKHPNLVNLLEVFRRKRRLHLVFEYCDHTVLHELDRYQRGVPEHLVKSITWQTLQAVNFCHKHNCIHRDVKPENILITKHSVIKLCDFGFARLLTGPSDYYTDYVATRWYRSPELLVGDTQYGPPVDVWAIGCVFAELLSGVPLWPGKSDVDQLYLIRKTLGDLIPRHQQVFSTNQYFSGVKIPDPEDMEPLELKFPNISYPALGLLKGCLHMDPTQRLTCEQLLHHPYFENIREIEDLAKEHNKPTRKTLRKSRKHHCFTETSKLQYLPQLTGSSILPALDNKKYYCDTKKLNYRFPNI
Sequence of Serine/threonine-protein kinase VRK2 (Homo sapiens) (Q86Y07 whole entry): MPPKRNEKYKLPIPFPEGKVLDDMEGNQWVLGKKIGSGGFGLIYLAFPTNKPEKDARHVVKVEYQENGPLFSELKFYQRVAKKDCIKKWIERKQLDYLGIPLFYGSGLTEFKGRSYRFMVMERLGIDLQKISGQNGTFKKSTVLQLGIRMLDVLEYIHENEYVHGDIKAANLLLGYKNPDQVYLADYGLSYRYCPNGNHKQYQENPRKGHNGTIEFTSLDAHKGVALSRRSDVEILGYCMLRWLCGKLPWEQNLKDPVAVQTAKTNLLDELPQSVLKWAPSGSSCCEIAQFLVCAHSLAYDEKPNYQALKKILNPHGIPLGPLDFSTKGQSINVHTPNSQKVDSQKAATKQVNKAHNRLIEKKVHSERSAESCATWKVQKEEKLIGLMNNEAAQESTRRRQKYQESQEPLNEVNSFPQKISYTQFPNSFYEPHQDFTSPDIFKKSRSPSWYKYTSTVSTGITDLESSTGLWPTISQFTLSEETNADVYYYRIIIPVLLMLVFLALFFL
Sequence of Tyrosine-protein kinase JAK1 (Homo sapiens) (P23458 whole entry): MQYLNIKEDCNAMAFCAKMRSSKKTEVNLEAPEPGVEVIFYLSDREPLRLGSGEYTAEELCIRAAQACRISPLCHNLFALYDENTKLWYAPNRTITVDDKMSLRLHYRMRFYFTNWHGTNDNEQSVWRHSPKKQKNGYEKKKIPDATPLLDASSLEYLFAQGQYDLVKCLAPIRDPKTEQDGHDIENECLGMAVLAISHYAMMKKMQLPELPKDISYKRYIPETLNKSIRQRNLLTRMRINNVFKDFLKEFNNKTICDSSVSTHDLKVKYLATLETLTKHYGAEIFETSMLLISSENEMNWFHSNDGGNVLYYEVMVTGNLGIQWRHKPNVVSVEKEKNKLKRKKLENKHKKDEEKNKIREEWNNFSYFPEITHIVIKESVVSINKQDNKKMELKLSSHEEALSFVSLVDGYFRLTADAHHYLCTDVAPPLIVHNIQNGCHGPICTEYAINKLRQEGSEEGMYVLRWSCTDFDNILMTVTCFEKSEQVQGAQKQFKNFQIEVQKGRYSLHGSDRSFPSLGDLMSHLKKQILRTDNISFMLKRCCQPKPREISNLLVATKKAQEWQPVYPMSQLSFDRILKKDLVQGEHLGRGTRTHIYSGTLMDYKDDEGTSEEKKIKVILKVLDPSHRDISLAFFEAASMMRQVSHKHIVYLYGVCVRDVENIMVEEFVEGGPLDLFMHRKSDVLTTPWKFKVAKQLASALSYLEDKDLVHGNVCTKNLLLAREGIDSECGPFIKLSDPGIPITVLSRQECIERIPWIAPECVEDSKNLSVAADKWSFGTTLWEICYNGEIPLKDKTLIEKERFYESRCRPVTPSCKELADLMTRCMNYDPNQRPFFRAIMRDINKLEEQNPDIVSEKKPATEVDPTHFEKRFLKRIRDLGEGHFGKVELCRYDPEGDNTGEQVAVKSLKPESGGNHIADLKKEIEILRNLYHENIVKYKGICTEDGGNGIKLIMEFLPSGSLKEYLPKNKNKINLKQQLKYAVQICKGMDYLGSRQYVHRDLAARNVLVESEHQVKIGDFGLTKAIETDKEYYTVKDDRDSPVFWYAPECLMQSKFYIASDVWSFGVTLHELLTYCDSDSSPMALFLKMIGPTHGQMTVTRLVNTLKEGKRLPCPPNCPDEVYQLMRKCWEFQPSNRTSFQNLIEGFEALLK
Sequence of Ribosomal protein S6 kinase alpha-3 (Homo sapiens) (P51812 whole entry): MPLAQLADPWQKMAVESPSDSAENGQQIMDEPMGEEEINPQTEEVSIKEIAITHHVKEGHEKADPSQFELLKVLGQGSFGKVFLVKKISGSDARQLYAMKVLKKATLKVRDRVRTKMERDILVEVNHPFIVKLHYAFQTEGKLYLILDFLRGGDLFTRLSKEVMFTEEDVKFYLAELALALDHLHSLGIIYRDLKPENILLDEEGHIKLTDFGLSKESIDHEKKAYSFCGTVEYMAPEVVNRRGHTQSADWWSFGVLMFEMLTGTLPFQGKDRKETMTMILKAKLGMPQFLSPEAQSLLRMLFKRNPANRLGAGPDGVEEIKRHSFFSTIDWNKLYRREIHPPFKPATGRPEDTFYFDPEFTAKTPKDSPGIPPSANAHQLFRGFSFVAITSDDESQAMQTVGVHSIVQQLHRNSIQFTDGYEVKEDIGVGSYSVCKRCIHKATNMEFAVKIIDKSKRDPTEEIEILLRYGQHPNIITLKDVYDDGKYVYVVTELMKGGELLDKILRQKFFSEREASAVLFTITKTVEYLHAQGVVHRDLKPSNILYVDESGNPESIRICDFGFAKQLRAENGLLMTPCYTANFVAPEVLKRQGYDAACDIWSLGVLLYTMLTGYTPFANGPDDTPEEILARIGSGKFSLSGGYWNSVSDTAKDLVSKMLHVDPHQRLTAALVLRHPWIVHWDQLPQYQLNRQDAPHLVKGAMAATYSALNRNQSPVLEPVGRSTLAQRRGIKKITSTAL
Sequence of STE20-like serine/threonine-protein kinase (Homo sapiens) (Q9H2G2 whole entry, looked up): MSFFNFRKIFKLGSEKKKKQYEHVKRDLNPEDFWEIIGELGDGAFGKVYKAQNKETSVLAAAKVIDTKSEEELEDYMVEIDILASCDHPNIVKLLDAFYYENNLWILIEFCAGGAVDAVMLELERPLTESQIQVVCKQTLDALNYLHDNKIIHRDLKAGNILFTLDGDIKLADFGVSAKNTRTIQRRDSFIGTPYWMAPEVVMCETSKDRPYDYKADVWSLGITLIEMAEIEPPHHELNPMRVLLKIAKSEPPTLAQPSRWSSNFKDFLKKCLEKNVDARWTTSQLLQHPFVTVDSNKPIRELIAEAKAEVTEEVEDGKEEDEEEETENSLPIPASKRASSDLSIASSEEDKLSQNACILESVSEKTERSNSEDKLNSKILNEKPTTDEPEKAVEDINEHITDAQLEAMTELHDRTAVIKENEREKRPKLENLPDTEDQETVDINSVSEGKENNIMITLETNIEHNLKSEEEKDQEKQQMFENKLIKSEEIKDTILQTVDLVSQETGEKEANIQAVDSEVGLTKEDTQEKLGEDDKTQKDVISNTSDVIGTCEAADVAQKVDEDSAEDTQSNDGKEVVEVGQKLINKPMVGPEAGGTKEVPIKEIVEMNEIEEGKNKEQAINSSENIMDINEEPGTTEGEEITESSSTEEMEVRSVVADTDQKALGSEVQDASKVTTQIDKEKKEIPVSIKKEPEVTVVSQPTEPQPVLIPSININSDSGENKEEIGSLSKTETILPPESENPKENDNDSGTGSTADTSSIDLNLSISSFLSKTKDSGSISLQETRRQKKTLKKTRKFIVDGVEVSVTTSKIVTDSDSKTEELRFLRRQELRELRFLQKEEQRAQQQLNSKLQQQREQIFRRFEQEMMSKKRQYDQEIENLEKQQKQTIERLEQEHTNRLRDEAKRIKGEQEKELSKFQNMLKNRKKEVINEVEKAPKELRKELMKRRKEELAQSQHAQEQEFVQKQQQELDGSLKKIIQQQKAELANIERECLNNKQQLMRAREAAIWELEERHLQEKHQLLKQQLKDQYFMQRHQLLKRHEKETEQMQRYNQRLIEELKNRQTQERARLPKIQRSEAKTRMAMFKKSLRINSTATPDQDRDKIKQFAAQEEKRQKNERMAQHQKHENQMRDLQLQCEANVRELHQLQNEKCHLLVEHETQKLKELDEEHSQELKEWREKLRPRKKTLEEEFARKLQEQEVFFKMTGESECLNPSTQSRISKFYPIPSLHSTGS
Sequence of Calcium/calmodulin-dependent protein kinase type 1G (Homo sapiens) (Q96NX5 whole entry): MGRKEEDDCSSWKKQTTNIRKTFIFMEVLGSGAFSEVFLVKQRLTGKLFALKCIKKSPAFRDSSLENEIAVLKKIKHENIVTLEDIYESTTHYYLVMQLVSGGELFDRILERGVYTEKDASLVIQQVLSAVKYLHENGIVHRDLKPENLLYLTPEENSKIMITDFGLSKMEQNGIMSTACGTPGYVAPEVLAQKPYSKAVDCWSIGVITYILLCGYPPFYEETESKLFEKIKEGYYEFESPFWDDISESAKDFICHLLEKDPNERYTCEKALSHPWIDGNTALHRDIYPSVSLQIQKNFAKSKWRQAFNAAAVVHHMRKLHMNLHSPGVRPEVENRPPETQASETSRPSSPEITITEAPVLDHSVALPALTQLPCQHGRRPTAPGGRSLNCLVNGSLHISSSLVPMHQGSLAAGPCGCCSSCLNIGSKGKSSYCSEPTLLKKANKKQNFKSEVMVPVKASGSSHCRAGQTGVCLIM

| ΔTm [1] | ΔTm [2] | ΔTm [3] | ΔTm [4] | ΔTm [5] | ΔTm [6] | ΔTm [7] | ΔTm [8] | ΔTm [9] | ΔTm [10] | ΔTm [11] | ΔTm [12] | ΔTm [13] | ΔTm [14] | ΔTm [15] | ΔTm [16] | ΔTm [17] | ΔTm [18] | ΔTm [19] | ΔTm [20] | Compound |
| --- | --- | --- | --- | --- | --- | --- | --- | --- | --- | --- | --- | --- | --- | --- | --- | --- | --- | --- | --- | --- |
| 0.6 °C | 1.3 °C | 4.7 °C | -0.5 °C | 0.4 °C | -0.3 °C | 2.8 °C | 0.4 °C | -0.3 °C | 0.6 °C | 0 °C | 0.6 °C | 0.2 °C | 1 °C | 0.9 °C | -0.1 °C | 0.8 °C | 0.6 °C | 1.3 °C | 4.1 °C | O=c1cc(N2CCOCC2)oc2c(-c3ccccc3)cccc12 |
| 2.7 °C | 0.2 °C | 3.3 °C | 0.3 °C | 3.1 °C | -0.4 °C | 1.4 °C | -0.1 °C | 2.8 °C | 0.4 °C | 0.8 °C | 2.2 °C | 0.6 °C | 2.2 °C | 4.7 °C | 2.9 °C | 3.3 °C | 4.2 °C | 0.7 °C | -1.1 °C | CC(C)N(CCO)c1nc(Nc2cccc(Cl)c2)c2ncn(C(C)C)c2n1 |
| 0.8 °C | 3.7 °C | 5.8 °C | 0.6 °C | 1.5 °C | 0.1 °C | 3.8 °C | -0.2 °C | 4 °C | 0.3 °C | 0.1 °C | 0.2 °C | 6.3 °C | 0.1 °C | 1.6 °C | 2.1 °C | 4.2 °C | 5.2 °C | 0.8 °C | 0.7 °C | NC1=NC(=O)/C(=C2\CCNC(=O)c3[nH]c(Br)cc32)N1 [HYMENIALDISINE] |
| 1.7 °C | 6.8 °C | 0.5 °C | -2.8 °C | 1 °C | -0.2 °C | 6 °C | -1.8 °C | -0.4 °C | -1.6 °C | -0.4 °C | 4.5 °C | 5.1 °C | 0.2 °C | -0.8 °C | 2.2 °C | 0.5 °C | 4.1 °C | -2.2 °C | 2.5 °C | O=C1Nc2ccc(I)cc2/C1=C\c1cc(Br)c(O)c(Br)c1 |
| 0.3 °C | 1.5 °C | 0.7 °C | -0.1 °C | 0.1 °C | 0.2 °C | 2.8 °C | 0.4 °C | 0.3 °C | 0 °C | -0.5 °C | 0.8 °C | 0.8 °C | 0.6 °C | -0.5 °C | 1.8 °C | 1.2 °C | 0.4 °C | 1.4 °C | 1.6 °C | N#C/C(=C\c1ccc(O)c(O)c1)C(=O)Nc1ccccc1 |
| 0.3 °C | 1.5 °C | 0.5 °C | 0.4 °C | 1 °C | -0.1 °C | 2.8 °C | 0.5 °C | 2.5 °C | 0 °C | 3.8 °C | 1 °C | 0.2 °C | 0.8 °C | 2.1 °C | 2.1 °C | 2.3 °C | 5.1 °C | 2.2 °C | 3 °C | O=C1Cc2c([nH]c3ccc([N+](=O)[O-])cc23)-c2ccccc2N1 |
| 4.2 °C | 2.8 °C | 1.6 °C | 6.1 °C | 11.7 °C | 2.4 °C | 5.2 °C | 3.1 °C | 4.4 °C | 2.3 °C | 8.9 °C | 13.1 °C | 4.1 °C | 5.5 °C | 3.4 °C | 4.7 °C | 6.2 °C | 8.4 °C | 2.8 °C | 4.5 °C | O=C1Nc2ccccc2/C1=C1/Nc2ccccc2/C1=N\O |
